Measurements from patent publication US20260262643A1, “HERBICIDAL BENZOXAZINES” (FMC CORPORATION, priority 2022, published 2026).

Legend:
corn [1] = assay: Test A postemergence; assay type: in vivo, Zea mays; settings: postemergence, 10 days, visual injury, 0 to 100 scale (0 no effect, 100 complete control)
How it was run: (§1)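 Loam/sand soil; pre-em directed soil spray at planting, post-em spray at 1–2 leaf (2–10 cm). Compound in non-phytotoxic solvent + surfactant. Greenhouse 10 d; visual injury vs untreated, 0 = no effect, 100 = complete control.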

ryegrass, Italian [2] = assay: Test A preemergence; assay type: in vivo, Lolium multiflorum
How it was run: as §1

oat, wild [3] = assay: Test A preemergence; assay type: in vivo, Avena fatua
How it was run: as §1

foxtail, giant [4] = assay: Test A preemergence; assay type: in vivo, Setaria faberi
How it was run: as §1

sedge, umbrella = assay: Test B flooded paddy test; assay type: in vivo, Cyperus difformis; settings: 250 g ai/ha, Flood, 13 days, 0 to 100 scale (0 no effect, 100 complete control)
How it was run: (§2)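 Flooded to 3 cm at treatment time, 2-leaf plants got the test compound applied straight into the paddy water. They then stayed under constant flood in a greenhouse for 13 days. Ratings used a 0 to 100 visual scale.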

rice = assay: Test B flooded paddy test; assay type: in vivo, Oryza sativa; settings: 250 g ai/ha, Flood, 13 days, 0 to 100 scale (0 no effect, 100 complete control)
How it was run: as §2

oat, wild [5] = assay: Test A postemergence; assay type: in vivo, Avena fatua; settings: 500 g ai/ha, postemergence, 10 days, visual injury, 0 to 100 scale (0 no effect, 100 complete control)
How it was run: as §1

blackgrass [6] = assay: Test A postemergence; assay type: in vivo, Alopecurus myosuroides
How it was run: as §1

goosegrass [7] = assay: Test A preemergence; assay type: in vivo, Eleusine indica
How it was run: as §1

pigweed, palmer [8] = assay: Test A postemergence; assay type: in vivo, Amaranthus palmeri; settings: 500 g ai/ha, postemergence, 10 days, visual injury, 0 to 100 scale (0 no effect, 100 complete control)
How it was run: as §1

barnyardgrass = assay: Test B flooded paddy test; assay type: in vivo, Echinochloa crus-galli; settings: 250 g ai/ha, Flood, 13 days, 0 to 100 scale (0 no effect, 100 complete control)
How it was run: as §2

horseweed = assay: Test A postemergence; assay type: in vivo, Erigeron canadensis; settings: postemergence, 10 days, visual injury, 0 to 100 scale (0 no effect, 100 complete control)
How it was run: as §1

ragweed [9] = assay: Test A preemergence; assay type: in vivo, Ambrosia artemisiifolia
How it was run: as §1

corn [10] = assay: Test A preemergence; assay type: in vivo, Zea mays
How it was run: as §1

wheat [11] = assay: Test A preemergence; assay type: in vivo, Triticum aestivum
How it was run: as §1

ducksalad = assay: Test B flooded paddy test; assay type: in vivo, Heteranthera limosa; settings: 250 g ai/ha, Flood, 13 days, 0 to 100 scale (0 no effect, 100 complete control)
How it was run: as §2

kochia [12] = assay: Test A postemergence; assay type: in vivo, Bassia scoparia; settings: postemergence, 10 days, visual injury, 0 to 100 scale (0 no effect, 100 complete control)
How it was run: as §1

blackgrass [13] = assay: Test A preemergence; assay type: in vivo, Alopecurus myosuroides
How it was run: as §1

ragweed [14] = assay: Test A postemergence; assay type: in vivo, Ambrosia artemisiifolia; settings: 500 g ai/ha, postemergence, 10 days, visual injury, 0 to 100 scale (0 no effect, 100 complete control)
How it was run: as §1

galium = assay: Test A postemergence; assay type: in vivo, Galium aparine; settings: postemergence, 10 days, visual injury, 0 to 100 scale (0 no effect, 100 complete control)
How it was run: as §1

goosegrass [15] = assay: Test A postemergence; assay type: in vivo, Eleusine indica; settings: postemergence, 10 days, visual injury, 0 to 100 scale (0 no effect, 100 complete control)
How it was run: as §1

soybean [16] = assay: Test A postemergence; assay type: in vivo, Glycine max; settings: 500 g ai/ha, postemergence, 10 days, visual injury, 0 to 100 scale (0 no effect, 100 complete control)
How it was run: as §1

kochia [17] = assay: Test A preemergence; assay type: in vivo, Bassia scoparia
How it was run: as §1

wheat [18] = assay: Test A postemergence; assay type: in vivo, Triticum aestivum; settings: 500 g ai/ha, postemergence, 10 days, visual injury, 0 to 100 scale (0 no effect, 100 complete control)
How it was run: as §1

ryegrass, Italian [19] = assay: Test A postemergence; assay type: in vivo, Lolium multiflorum; settings: 500 g ai/ha, postemergence, 10 days, visual injury, 0 to 100 scale (0 no effect, 100 complete control)
How it was run: as §1

foxtail, giant [20] = assay: Test A postemergence; assay type: in vivo, Setaria faberi; settings: postemergence, 10 days, visual injury, 0 to 100 scale (0 no effect, 100 complete control)
How it was run: as §1

pigweed, palmer [21] = assay: Test A preemergence; assay type: in vivo, Amaranthus palmeri
How it was run: as §1

soybean [22] = assay: Test A preemergence; assay type: in vivo, Glycine max
How it was run: as §1

[23] = 125 g ai/ha, visual injury after 10 days, 0 to 100 scale, 0 is no effect, 100 is complete control
[24] = 500 g ai/ha, 0 to 100 scale (0 no effect, 100 complete control), 10 days
[25] = 125 g ai/ha, postemergence, 10 days, visual injury, 0 to 100 scale (0 no effect, 100 complete control)
[26] = 500 g ai/ha, Postemergence, 0 to 100 scale

SMILES: Cc1ccc(-n2cnc(C3CC3)n2)cc1C(=O)N1C[C@H](C)Oc2c(Cl)cccc21 [Compound 67]
- Plant response rating, Corn (corn [1]; 125 g ai/ha): 60
- Plant response rating, Corn (corn [1]; 500 g ai/ha): 60
- Plant response rating, Ryegrass, Italian (ryegrass, Italian [2]; [23]): 100
- Plant response rating, Ryegrass, Italian (ryegrass, Italian [2]; [24]): 100
- Plant response rating, Oat, Wild (oat, wild [3]; [23]): 30
- Plant response rating, Oat, Wild (oat, wild [3]; [24]): 90
- Plant response rating, Foxtail, Giant (foxtail, giant [4]; [23]): 100
- Plant response rating, Foxtail, Giant (foxtail, giant [4]; [24]): 100
- Plant response rating, Sedge, Umbrella (sedge, umbrella): 75
- Plant response rating, Rice (rice): 0
- Plant response rating, Oat, Wild (oat, wild [5]): 60
- Plant response rating, Blackgrass (blackgrass [6]; [25]): 70
- Plant response rating, Blackgrass (blackgrass [6]; [26]): 90
- Plant response rating, Goosegrass (goosegrass [7]; [23]): 100
- Plant response rating, Goosegrass (goosegrass [7]; [24]): 100
- Plant response rating, Pigweed, Palmer (pigweed, palmer [8]): 90
- Plant response rating, Barnyardgrass (barnyardgrass): 0
- Plant response rating, Horseweed (horseweed; 125 g ai/ha): 30
- Plant response rating, Horseweed (horseweed; 500 g ai/ha): 30
- Plant response rating, Ragweed (ragweed [9]; [23]): 0
- Plant response rating, Ragweed (ragweed [9]; [24]): 30
- Plant response rating, Corn (corn [10]; [23]): 40
- Plant response rating, Corn (corn [10]; [24]): 50
- Plant response rating, Wheat (wheat [11]; [23]): 10
- Plant response rating, Wheat (wheat [11]; [24]): 30
- Plant response rating, Ducksalad (ducksalad): 30
- Plant response rating, Kochia (kochia [12]; 125 g ai/ha): 70
- Plant response rating, Kochia (kochia [12]; 500 g ai/ha): 100
- Plant response rating, Blackgrass (blackgrass [13]; [23]): 80
- Plant response rating, Blackgrass (blackgrass [13]; [24]): 90
- Plant response rating, Ragweed (ragweed [14]): 70
- Plant response rating, Galium (galium; 125 g ai/ha): 100
- Plant response rating, Galium (galium; 500 g ai/ha): 100
- Plant response rating, Goosegrass (goosegrass [15]; 125 g ai/ha): 30
- Plant response rating, Goosegrass (goosegrass [15]; 500 g ai/ha): 70
- Plant response rating, Soybean (soybean [16]): 100
- Plant response rating, Kochia (kochia [17]; [23]): 80
- Plant response rating, Kochia (kochia [17]; [24]): 100
- Plant response rating, Wheat (wheat [18]): 30
- Plant response rating, Ryegrass, Italian (ryegrass, Italian [19]): 100
- Plant response rating, Foxtail, Giant (foxtail, giant [20]; 125 g ai/ha): 50
- Plant response rating, Foxtail, Giant (foxtail, giant [20]; 500 g ai/ha): 90
- Plant response rating, Pigweed, Palmer (pigweed, palmer [21]; [23]): 100
- Plant response rating, Pigweed, Palmer (pigweed, palmer [21]; [24]): 100
- Plant response rating, Soybean (soybean [22]; [23]): 50
- Plant response rating, Soybean (soybean [22]; [24]): 70

SMILES: Cc1cccc2c1O[C@@H](C)CN2C(=O)c1cccc(-n2cnc(Cl)n2)c1 [Compound 69]
- Plant response rating, Corn (corn [1]; 125 g ai/ha): 10
- Plant response rating, Corn (corn [1]; 500 g ai/ha): 30
- Plant response rating, Ryegrass, Italian (ryegrass, Italian [2]; [23]): 80
- Plant response rating, Ryegrass, Italian (ryegrass, Italian [2]; [24]): 80
- Plant response rating, Oat, Wild (oat, wild [3]; [23]): 20
- Plant response rating, Oat, Wild (oat, wild [3]; [24]): 70
- Plant response rating, Foxtail, Giant (foxtail, giant [4]; [23]): 90
- Plant response rating, Foxtail, Giant (foxtail, giant [4]; [24]): 90
- Plant response rating, Sedge, Umbrella (sedge, umbrella): 0
- Plant response rating, Rice (rice): 0
- Plant response rating, Oat, Wild (oat, wild [5]): 30
- Plant response rating, Blackgrass (blackgrass [6]; [25]): 0
- Plant response rating, Blackgrass (blackgrass [6]; [26]): 60
- Plant response rating, Goosegrass (goosegrass [7]; [23]): 90
- Plant response rating, Goosegrass (goosegrass [7]; [24]): 100
- Plant response rating, Pigweed, Palmer (pigweed, palmer [8]): 40
- Plant response rating, Barnyardgrass (barnyardgrass): 0
- Plant response rating, Horseweed (horseweed; 125 g ai/ha): 0
- Plant response rating, Horseweed (horseweed; 500 g ai/ha): 0
- Plant response rating, Ragweed (ragweed [9]; [23]): 0
- Plant response rating, Ragweed (ragweed [9]; [24]): 0
- Plant response rating, Corn (corn [10]; [23]): 30
- Plant response rating, Corn (corn [10]; [24]): 30
- Plant response rating, Wheat (wheat [11]; [23]): 10
- Plant response rating, Wheat (wheat [11]; [24]): 20
- Plant response rating, Ducksalad (ducksalad): 0
- Plant response rating, Kochia (kochia [12]; 125 g ai/ha): 20
- Plant response rating, Kochia (kochia [12]; 500 g ai/ha): 60
- Plant response rating, Blackgrass (blackgrass [13]; [23]): 40
- Plant response rating, Blackgrass (blackgrass [13]; [24]): 90
- Plant response rating, Ragweed (ragweed [14]): 30
- Plant response rating, Galium (galium; 125 g ai/ha): 60
- Plant response rating, Galium (galium; 500 g ai/ha): 100
- Plant response rating, Goosegrass (goosegrass [15]; 125 g ai/ha): 0
- Plant response rating, Goosegrass (goosegrass [15]; 500 g ai/ha): 20
- Plant response rating, Soybean (soybean [16]): 100
- Plant response rating, Kochia (kochia [17]; [23]): 60
- Plant response rating, Kochia (kochia [17]; [24]): 70
- Plant response rating, Wheat (wheat [18]): 10
- Plant response rating, Ryegrass, Italian (ryegrass, Italian [19]): 70
- Plant response rating, Foxtail, Giant (foxtail, giant [20]; 125 g ai/ha): 20
- Plant response rating, Foxtail, Giant (foxtail, giant [20]; 500 g ai/ha): 80
- Plant response rating, Pigweed, Palmer (pigweed, palmer [21]; [23]): 20
- Plant response rating, Pigweed, Palmer (pigweed, palmer [21]; [24]): 90
- Plant response rating, Soybean (soybean [22]; [23]): 0
- Plant response rating, Soybean (soybean [22]; [24]): 0
